Entries after “also recorded” stand apart in the source; their conditions may differ.
Legend:
[1] = tested on: Bradyrhizobium japonicum; assay: RNASeq gene expression in Bradyrhizobium japonicum; format: cell-based
Protocol: Expression levels for all genes in a nitrogen fixing bacteria (Bradyrhizobium japonicum) were measured in the presence or absence of AB09 using Illumina RNASeq technology.

[2] = tested on: nif operon structural genes (nifH, nifD, and nifK); assay: RNA-seq of Azotobacter vinlandii; format: cell-based; details: 25 ug/mL, nitrogen free media, 48 h, RNA-seq (FPKM)
Protocol: Global gene expression profiles of Azotobacter vinlandii grown in nitrogen free media were compared with and without AB09 treatment using RNA sequencing (RNA-seq).
A starter liquid culture of A. vinlandii in Burks-N media (at OD600=0.02) was divided into six flasks. Three flasks received AB09 at 25 ug/mL and three received a mock treatment. RNA was collected at 48 h of growth. One mL of 48 h cultures of Azotobacter vinlandii were pelleted for 3 minutes as 13,000 rpm. Supernatant was removed and pellets were flash frozen in liquid nitrogen. RNA was extracted with the Norgen RNA extraction kit. Ribo-depletion and sequencing libraries were constructed by Seqmatic, Inc. (Fremont, CA). Illumina single-end reads of 150 nt were mapped using bowtie (-v 2 -k2 -chunkmbs 3000) to the Azotobacter vinelandii CA (ASM38033v1) cds sequences. Custom perl scripts were used to extract the uniquely mapped reads and calculate the read count per million mapped reads (multi and uniquely mapped) per kilobase of gene for each gene.

[3] = Field trial of soil phosphate depletion on Iowa farmland; format: in vivo; details: Iowa field plots, vs untreated plots
Protocol: Available soil phosphate was measured at the beginning of the growing season (Pre VT) and at the end of the growing season (Post VT).
The solubilizing activity of AB09 was measured in field trials on Iowa farmland. Over the course of a growing season, plants pull available phosphate from the soil, resulting in lower levels at the end of the season versus at the beginning. This phosphate depletion can be measured with standard soil tests.

[4] = tested on: wheat; assay: Wheat growth on nitrogen free media with nitrogen fixing bacterium; format: in vivo; details: AB09 in combination with a nitrogen fixing bacterium, vs control lacking treatment
Protocol: The ability of the AB09 molecule to control useful soil bacteria metabolism has implications for building integrated technology systems and groundbreaking products. In the lab, AB09 was administered in combination with a nitrogen fixing bacterium to nitrogen free media.

[5] = tested on: soil consortia cultures with corn plant; assay: Phosphate solubilization with corn (foliar spray or soil applied) in soil consortia cultures; format: in vivo, B73 Corn
Source text: In order to test the ability of AB09 to stimulate a phosphate solubilization phenotype when applied on plants versus directly into soil, a 3 week old corn plant was introduced into the soil consortia cultures. Approximately two weeks prior to the experiment, corn plants were removed from soil and roots were cleaned of potting soil. […] Corn leaves were sprayed with AB09 (roots protected with foil during spray application) and roots were placed in flasks of NBRIP liquid media and soil inoculant (FIG. 4B). The flasks were placed on a low speed orbital shaker under fluorescent lights and the media supernatant was tested for phosphate concentration after 24 h.
FIG. 4A illustrates that B73 Corn plants were grown until V3 growth stage, removed from soil, rinsed, and placed in tap water for 1.5 weeks to induce nutrient stress FIG. 4B illustrates that plants received either foliar (3 mL/plant using a fingertip sprayer) or soil applied treatments and were placed in 250 mL baffled flasks containing 50 mL NBRIP growth medium ([53 mM] Ca3(PO4)2) and 500 mg of 2 mm particle-sized soil. Flasks with treated corn and sterilized foam caps with were placed on orbital shakers at 100 RPM for 1 day at room temperature under fluorescent lights. FIG. 4C illustrates that orthophosphate was measured using the malachite-green phosphate method. […]

[6] = tested on: wheat; assay: Wheat plant growth assay (seed treatment); format: in vivo; details: seed treatment 1 ug/seed, four days after emergence, vs mock treated
Protocol: To determine the effect of AB09 on plants, AB09 was seed treated at a rate of 1 ug/seed onto wheat seeds. Plants were analyzed four days after emergence. […] AB09 was applied to wheat seeds, which were planted in sand and shoots were measured for height at four days post-emergence. Control seeds received a mock treatment. The WinRhizo Pro root scanner and software were used to obtain root length and surface area. AB09 at a rate of lug/seed in acetone was treated onto seeds and the acetone was allowed to fully evaporate. Control seeds were mock treated with acetone. Seeds were planted in wet sand in 50 mL tubes sand, placed under fluorescent lights, and watered with tap water. Seedlings were measured four days post-emergence for shoot height. The WinRhizo Pro root scanner and software were used to obtain root length and surface area.

Compound: CC1=CC(Oc2c(C)occc2=O)OC1=O (stereo not drawn) [AB09, maltol lactone]
- gene expression (Illumina RNASeq) in presence vs absence of AB09 [1]: induced genetic regulators and pathways for nitrogen fixation and for microaerophilic growth
- expression of nif operon structural genes nifH, nifD and nifK over control cultures [2]: increase
- soil phosphate depletion over the growing season (pre VT to post VT) [3]: less phosphate depletion; also recorded: significantly reduced
- wheat growth on nitrogen free media [4]: substantially greater; also recorded: more robust growth
- phosphate solubilization, treatment directly applied to the soil supernatant ([5]; corn roots in NBRIP with soil inoculant, after 24 h): increase
- phosphate solubilization, treatment applied to corn leaves as a foliar spray ([5]; two treatment doses (25 or 50 ug/mL, 3 mL/plant), media supernatant after 24 h): increase
- root length [6]: increase
- root surface area [6]: increase
- shoot height [6]: increase

Source: patent US12239132B2, “Compounds and methods for increasing soil nutrient availability” (SOUND AGRICULTURE COMPANY, priority 2018, dated 2025)
